From ChEMBL document CHEMBL4680234, “Antibacterial AZT derivative regulates metastasis of breast cancer cells” (Eur J Med Chem, 2020)
Values after ≈ are worked out from the molar mass of the structure shown.

Experiments:
Staphylococcus aureus [1] = test: Antimicrobial activity against methicillin-resistant Staphylococcus aureus CCARM 3089 assessed as reduction in microbial growth incubated for 18 to 24 hrs by broth microdilution method; format: functional; conditions: time 18-24 hrs
Staphylococcus aureus [2] = test: Antimicrobial activity against methicillin-resistant Staphylococcus aureus CCARM 3090 assessed as reduction in microbial growth incubated for 18 to 24 hrs by broth microdilution method; format: functional; conditions: time 18-24 hrs
Staphylococcus aureus [3] = test: Antimicrobial activity against methicillin-resistant Staphylococcus aureus CCARM 3095 assessed as reduction in microbial growth incubated for 18 to 24 hrs by broth microdilution method; format: functional; conditions: time 18-24 hrs
Escherichia coli [4] = test: Antibacterial activity against Escherichia coli KCTC 1682 assessed as reduction in bacterial growth incubated for 18 to 22 hrs by spectrophotometry based broth microdilution method; format: functional; conditions: time 18-22 hrs, read-out: MIC100
Pseudomonas aeruginosa [5] = test: Antibacterial activity against Pseudomonas aeruginosa KCTC 1637 assessed as reduction in bacterial growth incubated for 18 to 22 hrs by spectrophotometry based broth microdilution method; format: functional; conditions: time 18-22 hrs, read-out: MIC100
Bacillus subtilis [6] = test: Antibacterial activity against Bacillus subtilis KCTC 3068 assessed as reduction in bacterial growth incubated for 18 to 22 hrs by spectrophotometry based broth microdilution method; format: functional; conditions: time 18-22 hrs, read-out: MIC100
Staphylococcus aureus [7] = test: Antibacterial activity against Staphylococcus aureus KCTC 1621 assessed as reduction in bacterial growth incubated for 18 to 22 hrs by spectrophotometry based broth microdilution method; format: functional; conditions: time 18-22 hrs, read-out: MIC100
Bacillus subtilis [8] = test: Potency index, ratio of melittin MIC to test compound MIC for antibacterial activity against Bacillus subtilis KCTC 3068; format: functional
Escherichia coli [9] = test: Potency index, ratio of melittin MIC to test compound MIC for antibacterial activity against Escherichia coli KCTC 1682; format: functional
Pseudomonas aeruginosa [10] = test: Potency index, ratio of melittin MIC to test compound MIC for antibacterial activity against Pseudomonas aeruginosa KCTC 1637; format: functional
Erythrocyte [11] = test: Hemolytic activity in sheep RBC at 16 ug/ml measured after 2 hrs by ELISA; format: cell-based, Ovis aries; conditions: dose 16 µg/ml
Erythrocyte [12] = test: Hemolytic activity in sheep RBC measured after 2 hrs by ELISA; format: ADME, cell-based, Ovis aries
[13] = Therapeutic index, ratio of MHC for sheep RBC to geometric mean of peptide MIC for Escherichia coli KCTC 1682; format: toxicity; conditions: sheep red blood cells (erythrocytes), read-out: TI
[14] = Therapeutic index, ratio of MHC for sheep RBC to geometric mean of peptide MIC for Pseudomonas aeruginosa KCTC 1637; format: toxicity; conditions: sheep red blood cells (erythrocytes), read-out: TI
[15] = Therapeutic index, ratio of MHC for sheep RBC to geometric mean of peptide MIC for Bacillus subtilis KCTC 3068; format: toxicity; conditions: sheep red blood cells (erythrocytes), read-out: TI
[16] = Therapeutic index, ratio of MHC for sheep RBC to geometric mean of peptide MIC for Staphylococcus aureus KCTC 1621; format: toxicity; conditions: sheep red blood cells (erythrocytes), read-out: TI
Staphylococcus aureus [17] = test: Potency index, ratio of melittin MIC to test compound MIC for antibacterial activity against Staphylococcus aureus KCTC 1621; format: functional

Structure (SMILES)	MIC (Escherichia coli [4])	MIC (Pseudomonas aeruginosa [5])	MIC (Bacillus subtilis [6])	MIC (Staphylococcus aureus [7])	MIC (Staphylococcus aureus [1])	MIC (Staphylococcus aureus [2])	MIC (Staphylococcus aureus [3])	Ratio (Bacillus subtilis [8])	Ratio (Escherichia coli [9])	Ratio (Pseudomonas aeruginosa [10])	Activity (Erythrocyte [11])	MHC (Erythrocyte [12])	selectivity ratio [13]	selectivity ratio [14]	selectivity ratio [15]	selectivity ratio [16]	Ratio (Staphylococcus aureus [17])
O=C(O)c1cn(C2CC2)c2cc(N3CCNCC3)c(F)cc2c1=O [CIPROFLOXACIN]					512 µg/mL	512 µg/mL	512 µg/mL										
O=C(N[C@H](CO)[C@H](O)c1ccc([N+](=O)[O-])cc1)C(Cl)Cl [CHLORAMPHENICOL]					512 µg/mL	256 µg/mL	512 µg/mL										
Cc1cn([C@H]2C[C@H](NC(=O)CC34CC5CC(CC(C5)C3)C4)[C@@H](CNC(=O)CC34CC5CC(CC(C5)C3)C4)O2)c(=O)nc1NCCNC(=N)N	64 µg/mL (≈ 94.5 µM)	> 64 µg/mL	4 µg/mL (≈ 5.91 µM)	4 µg/mL (≈ 5.91 µM)					2	2	Non-Toxic	43 µg/mL	0.9	0.9	0.9	0.9	
Cc1onc(-c2ccccc2)c1C(=O)N[C@@H]1C(=O)N2[C@@H]1SC(C)(C)[C@@H]2C(=O)O [OXACILLIN]					256 µg/mL	512 µg/mL	256 µg/mL										
Cc1cn([C@H]2C[C@H](NC(=O)CC34CC5CC(CC(C5)C3)C4)[C@@H](CNC(=O)CC34CC5CC(CC(C5)C3)C4)O2)c(=O)nc1N(CCCN)CCCN	32 µg/mL (≈ 45.3 µM)	4 µg/mL (≈ 5.67 µM)	2 µg/mL (≈ 2.83 µM)	4 µg/mL (≈ 5.67 µM)				4		4	Non-Toxic	52 µg/mL	5	5	5	5	2

Now from value to compound, other results behind:

MIC (Escherichia coli [4])	MIC (Pseudomonas aeruginosa [5])	MIC (Bacillus subtilis [6])	MIC (Staphylococcus aureus [7])	Structure (SMILES)	MIC (Staphylococcus aureus [1])	MIC (Staphylococcus aureus [2])	MIC (Staphylococcus aureus [3])	Ratio (Bacillus subtilis [8])	Ratio (Escherichia coli [9])	Ratio (Pseudomonas aeruginosa [10])	Activity (Erythrocyte [11])	MHC (Erythrocyte [12])	selectivity ratio [13]	selectivity ratio [14]	selectivity ratio [15]	selectivity ratio [16]	Ratio (Staphylococcus aureus [17])
64 µg/mL (≈ 82.7 µM)	16 µg/mL (≈ 20.7 µM)	4 µg/mL (≈ 5.17 µM)	8 µg/mL (≈ 10.3 µM)	Cc1cn([C@H]2C[C@H](NC(=O)Cc3cccc4ccccc34)[C@@H](CNC(=O)Cc3cccc4ccccc34)O2)c(=O)nc1N(CCCNC(=N)N)CCCNC(=N)N				2									
> 64 µg/mL	32 µg/mL (≈ 51.9 µM)	64 µg/mL (≈ 104 µM)	64 µg/mL (≈ 104 µM)	Cc1cn([C@H]2C[C@H](NC(=O)CCCc3ccccc3)[C@@H](CNC(=O)CCCc3ccccc3)O2)c(=O)nc1NCCNC(=N)N													
> 64 µg/mL	16 µg/mL (≈ 25.2 µM)	32 µg/mL (≈ 50.5 µM)	32 µg/mL (≈ 50.5 µM)	CCCCCC(=O)NC[C@H]1O[C@@H](n2cc(C)c(N(CCCNC(=N)N)CCCNC(=N)N)nc2=O)C[C@@H]1NC(=O)CCCCC													
64 µg/mL (≈ 92.8 µM)	8 µg/mL (≈ 11.6 µM)	4 µg/mL (≈ 5.8 µM)	16 µg/mL (≈ 23.2 µM)	Cc1cn([C@H]2C[C@H](NC(=O)Cc3cccc4ccccc34)[C@@H](CNC(=O)Cc3cccc4ccccc34)O2)c(=O)nc1N(CCCN)CCCN				2	4	2							2
